Test results taken from ChEMBL document CHEMBL1201862, “PubChem BioAssay data set” (2004).
Calls of active or inactive are those of the source.

Key:
[1] = target: T1, Aminopeptidase N (Plasmodium falciparum FcB1/Columbia, UniProt O96935); test: malaria alanyl aminopeptidase activity blockers – biochemical, fluorogenic H-Leu-NHMec substrate, 1536-well (AID 1445); design: species or system Plasmodium falciparum 3D7, 3D7
T1 sequence (O96935 whole entry): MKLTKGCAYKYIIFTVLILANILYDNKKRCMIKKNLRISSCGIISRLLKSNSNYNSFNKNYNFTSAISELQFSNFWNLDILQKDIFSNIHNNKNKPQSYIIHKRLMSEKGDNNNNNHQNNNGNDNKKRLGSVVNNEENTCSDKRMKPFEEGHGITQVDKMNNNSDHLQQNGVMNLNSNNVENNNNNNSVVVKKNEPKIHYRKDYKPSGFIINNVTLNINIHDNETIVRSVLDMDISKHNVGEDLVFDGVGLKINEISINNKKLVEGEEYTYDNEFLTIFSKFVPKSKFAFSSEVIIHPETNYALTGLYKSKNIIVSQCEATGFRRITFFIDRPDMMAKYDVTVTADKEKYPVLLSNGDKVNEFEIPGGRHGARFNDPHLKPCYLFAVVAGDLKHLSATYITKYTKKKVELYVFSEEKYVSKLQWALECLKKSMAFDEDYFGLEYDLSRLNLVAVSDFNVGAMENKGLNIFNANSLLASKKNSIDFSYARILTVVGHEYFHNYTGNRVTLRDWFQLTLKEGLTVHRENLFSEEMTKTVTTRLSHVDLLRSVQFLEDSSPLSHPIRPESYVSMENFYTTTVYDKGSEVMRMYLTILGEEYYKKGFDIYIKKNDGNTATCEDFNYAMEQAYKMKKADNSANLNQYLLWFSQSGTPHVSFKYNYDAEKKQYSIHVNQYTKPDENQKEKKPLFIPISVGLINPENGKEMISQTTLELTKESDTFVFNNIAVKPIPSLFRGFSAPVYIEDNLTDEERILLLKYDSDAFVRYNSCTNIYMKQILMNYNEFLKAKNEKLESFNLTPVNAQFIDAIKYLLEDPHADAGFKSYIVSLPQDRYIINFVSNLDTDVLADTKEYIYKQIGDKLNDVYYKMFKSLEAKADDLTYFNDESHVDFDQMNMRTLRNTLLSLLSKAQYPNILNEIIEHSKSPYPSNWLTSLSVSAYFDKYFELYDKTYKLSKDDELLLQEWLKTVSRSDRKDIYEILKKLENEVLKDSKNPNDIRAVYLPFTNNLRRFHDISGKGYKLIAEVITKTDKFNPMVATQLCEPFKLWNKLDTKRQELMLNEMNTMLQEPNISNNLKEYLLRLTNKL

[2] = target: Dual specificity tyrosine-phosphorylation-regulated kinase 1A (Rattus norvegicus, UniProt Q63470); format: biochemical, Homo sapiens
[3] = target: DNA dC->dU-editing enzyme APOBEC-3A (Homo sapiens, UniProt P31941); test: Dose Response confirmation of small molecule APOBEC3A DNA Deaminase Inhibitors via a fluorescence-based single-stranded DNA deaminase assay. [Related pubchem assays (depositor defined):AID493011, AID493024]; format: functional
[4] = target: DNA dC->dU-editing enzyme APOBEC-3G (Homo sapiens, UniProt Q9HC16); format: functional;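 further: Dose-response counterscreen measuring inhibition of APOBEC3G DNA deaminase activity, run while confirming APOBEC3A inhibitors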
[5] = target: T2, Estrogen receptor (Homo sapiens, UniProt P03372);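 further: potency for inhibiting coactivator peptide recruitment to the receptor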
T2 sequence (P03372 whole entry): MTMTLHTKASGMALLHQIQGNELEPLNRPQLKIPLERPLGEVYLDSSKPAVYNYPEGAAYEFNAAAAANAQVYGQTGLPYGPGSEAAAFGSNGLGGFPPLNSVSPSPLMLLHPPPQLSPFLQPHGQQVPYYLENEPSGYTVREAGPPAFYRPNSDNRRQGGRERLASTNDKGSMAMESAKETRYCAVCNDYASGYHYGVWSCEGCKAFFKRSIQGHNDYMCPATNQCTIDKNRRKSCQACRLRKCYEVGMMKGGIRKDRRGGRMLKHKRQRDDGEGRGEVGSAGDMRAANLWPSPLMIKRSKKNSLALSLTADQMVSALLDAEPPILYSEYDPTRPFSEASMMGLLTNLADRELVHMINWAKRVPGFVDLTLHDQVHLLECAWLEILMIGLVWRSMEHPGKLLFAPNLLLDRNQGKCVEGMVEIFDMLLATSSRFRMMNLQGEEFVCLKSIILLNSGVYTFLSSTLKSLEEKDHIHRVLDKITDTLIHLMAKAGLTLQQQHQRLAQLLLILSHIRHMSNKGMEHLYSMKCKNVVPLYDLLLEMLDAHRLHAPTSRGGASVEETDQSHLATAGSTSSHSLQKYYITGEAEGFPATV

[6] = HEK-293T cell viability reduction – luminescence, B-cell screen hits, cytotoxicity control for BCR NF-kB inhibitor project, dose response (AID 489021); format: functional, cell-based;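 further: HEK-293T cells carrying an NF-kB luciferase reporter; cells exposed to compound for about 14 hours before viability readout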
[7] = target: T3, Apoptotic protease-activating factor 1 (Homo sapiens, UniProt O14727); format: functional
T3 sequence (O14727 whole entry): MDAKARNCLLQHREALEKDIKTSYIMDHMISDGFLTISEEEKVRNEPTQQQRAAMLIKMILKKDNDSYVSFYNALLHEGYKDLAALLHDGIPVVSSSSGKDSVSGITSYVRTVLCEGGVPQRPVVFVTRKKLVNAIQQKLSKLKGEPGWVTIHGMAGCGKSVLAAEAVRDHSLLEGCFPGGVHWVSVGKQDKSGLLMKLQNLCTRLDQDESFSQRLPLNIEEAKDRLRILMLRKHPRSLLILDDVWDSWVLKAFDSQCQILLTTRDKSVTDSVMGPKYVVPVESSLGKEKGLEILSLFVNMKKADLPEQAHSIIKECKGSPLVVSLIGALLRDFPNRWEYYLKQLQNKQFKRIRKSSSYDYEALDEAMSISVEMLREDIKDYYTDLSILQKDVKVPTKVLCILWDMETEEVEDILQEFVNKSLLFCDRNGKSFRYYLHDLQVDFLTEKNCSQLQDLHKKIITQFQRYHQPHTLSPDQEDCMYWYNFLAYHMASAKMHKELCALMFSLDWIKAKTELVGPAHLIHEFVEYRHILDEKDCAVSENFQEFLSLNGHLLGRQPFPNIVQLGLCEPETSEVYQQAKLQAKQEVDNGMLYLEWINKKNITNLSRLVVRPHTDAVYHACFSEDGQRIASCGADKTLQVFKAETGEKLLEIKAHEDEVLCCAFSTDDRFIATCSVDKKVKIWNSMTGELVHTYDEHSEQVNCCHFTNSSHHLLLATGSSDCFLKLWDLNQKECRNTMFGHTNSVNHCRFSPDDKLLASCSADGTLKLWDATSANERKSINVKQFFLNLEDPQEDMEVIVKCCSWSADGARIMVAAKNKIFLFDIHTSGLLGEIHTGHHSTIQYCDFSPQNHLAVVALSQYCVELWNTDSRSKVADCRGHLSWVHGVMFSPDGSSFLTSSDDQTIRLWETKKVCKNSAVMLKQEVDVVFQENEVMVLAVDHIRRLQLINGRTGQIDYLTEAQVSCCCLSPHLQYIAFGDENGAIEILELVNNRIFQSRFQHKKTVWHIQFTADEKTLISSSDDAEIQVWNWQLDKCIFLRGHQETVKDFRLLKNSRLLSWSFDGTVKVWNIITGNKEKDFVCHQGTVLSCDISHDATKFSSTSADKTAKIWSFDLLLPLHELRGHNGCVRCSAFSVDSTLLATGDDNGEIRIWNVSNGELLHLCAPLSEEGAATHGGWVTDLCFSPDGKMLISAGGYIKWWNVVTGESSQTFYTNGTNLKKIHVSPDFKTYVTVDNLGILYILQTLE

[8] = tested on: Vero; test: cells; format: functional; settings: Chlorocebus sabaeus
[9] = luciferase reporter signal suppression in cells – H4 neuroglioma cells, luminescence, dose response (AID 1990); format: functional, cell-based
[10] = tested on: HEK293; test: inhibition of NOD1-driven NF-kB reporter – cell-based, luminescence, uHTS, primary screen (AID 1578); format: functional; settings: Homo sapiens
[11] = tested on: HEK293; test: cells; format: functional, cell-based; settings: Homo sapiens
[12] = Luminescence Cell-Based Dose Response HTS to Identify Inhibitors of 5'UTR Stem-Loop Driven Prion Protein mRNA Translation in H4 Neuroglioblastoma Cells. [Related pubchem assays: 1827 (Project Summary), 1813 (Primary HTS)]; format: functional
[13] = target: T4, Heat shock factor protein 1 (Mus musculus, UniProt P38532); test: decrease of HSF1-responsive luciferase luminescence – cell-based, NIH3T3, dose retest, confirmation (AID 2382); format: functional;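 further: NIH3T3 fibroblasts with HSF1-driven luciferase reporter stressed by proteasome inhibitor MG132; luminescence from HSF1-driven luciferase expression after 8 hours of MG132 stress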
T4 sequence (P38532 whole entry): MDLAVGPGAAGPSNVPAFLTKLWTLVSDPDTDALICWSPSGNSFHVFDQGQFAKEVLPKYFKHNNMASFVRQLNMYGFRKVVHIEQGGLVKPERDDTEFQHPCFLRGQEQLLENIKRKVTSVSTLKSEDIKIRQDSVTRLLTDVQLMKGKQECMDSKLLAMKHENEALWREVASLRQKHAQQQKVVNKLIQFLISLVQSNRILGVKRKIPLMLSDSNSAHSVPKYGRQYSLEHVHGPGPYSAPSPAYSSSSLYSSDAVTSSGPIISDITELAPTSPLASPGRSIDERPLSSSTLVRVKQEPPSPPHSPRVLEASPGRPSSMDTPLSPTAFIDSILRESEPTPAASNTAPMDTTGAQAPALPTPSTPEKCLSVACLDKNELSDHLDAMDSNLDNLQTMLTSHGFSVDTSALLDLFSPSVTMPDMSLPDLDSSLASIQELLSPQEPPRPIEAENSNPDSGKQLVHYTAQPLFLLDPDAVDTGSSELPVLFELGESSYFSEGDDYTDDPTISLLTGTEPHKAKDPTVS

[14] = alpha-synuclein stem-loop luciferase translation blockers – H4 neuroglioma cells, luminescence, confirmation (AID 1988); format: functional, cell-based
[15] = tested on: HEK293; test: cells; format: functional, cell-based; settings: Homo sapiens; remark: listed apart in the source
[16] = target: Nucleotide-binding oligomerization domain-containing protein 2 (Homo sapiens, UniProt Q9HC29); test: inhibition of NOD2-driven NF-kB reporter – cell-based, luminescence, uHTS, HEK293 (AID 1566); format: functional
[17] = tested on: HEK293; test: NOD2 signaling inhibitors in MDP-stimulated cells, cell-based, uHTS, luminescence (AID 2001); format: functional; settings: Homo sapiens
[18] = tested on: HEK293; test: cells; format: functional, cell-based; settings: Homo sapiens; remark: listed apart in the source
[19] = Luminescence Cell-Based Dose Retest to Confirm Inhibitors of Cancer Stem Cells. [Related pubchem assays (depositor defined):AID2717, AID2721]; format: functional; settings: Homo sapiens
[20] = tested on: INS1; test: INS-1E survival protection against cytokine death – cell-based, luminescence, retest, dose response (AID 449756); format: functional; settings: Rattus norvegicus;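 further: cell death triggered by IL-1 beta plus TNF-alpha plus IFN-gamma mixture; protective hits raise ATP signal compared with cytokine alone wells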
[21] = HPDE-C7 pancreatic duct cell viability loss – fluorescence, HTS (AID 430); format: functional, cell-based; settings: Homo sapiens
[22] = viability loss of HPDE-C7K cells – cell-based, fluorescence, HTS, primary screen (AID 431); format: functional; settings: Homo sapiens

Chain of Nucleotide-binding oligomerization domain-containing protein 2 (Q9HC29 whole entry, the tested form may be a part): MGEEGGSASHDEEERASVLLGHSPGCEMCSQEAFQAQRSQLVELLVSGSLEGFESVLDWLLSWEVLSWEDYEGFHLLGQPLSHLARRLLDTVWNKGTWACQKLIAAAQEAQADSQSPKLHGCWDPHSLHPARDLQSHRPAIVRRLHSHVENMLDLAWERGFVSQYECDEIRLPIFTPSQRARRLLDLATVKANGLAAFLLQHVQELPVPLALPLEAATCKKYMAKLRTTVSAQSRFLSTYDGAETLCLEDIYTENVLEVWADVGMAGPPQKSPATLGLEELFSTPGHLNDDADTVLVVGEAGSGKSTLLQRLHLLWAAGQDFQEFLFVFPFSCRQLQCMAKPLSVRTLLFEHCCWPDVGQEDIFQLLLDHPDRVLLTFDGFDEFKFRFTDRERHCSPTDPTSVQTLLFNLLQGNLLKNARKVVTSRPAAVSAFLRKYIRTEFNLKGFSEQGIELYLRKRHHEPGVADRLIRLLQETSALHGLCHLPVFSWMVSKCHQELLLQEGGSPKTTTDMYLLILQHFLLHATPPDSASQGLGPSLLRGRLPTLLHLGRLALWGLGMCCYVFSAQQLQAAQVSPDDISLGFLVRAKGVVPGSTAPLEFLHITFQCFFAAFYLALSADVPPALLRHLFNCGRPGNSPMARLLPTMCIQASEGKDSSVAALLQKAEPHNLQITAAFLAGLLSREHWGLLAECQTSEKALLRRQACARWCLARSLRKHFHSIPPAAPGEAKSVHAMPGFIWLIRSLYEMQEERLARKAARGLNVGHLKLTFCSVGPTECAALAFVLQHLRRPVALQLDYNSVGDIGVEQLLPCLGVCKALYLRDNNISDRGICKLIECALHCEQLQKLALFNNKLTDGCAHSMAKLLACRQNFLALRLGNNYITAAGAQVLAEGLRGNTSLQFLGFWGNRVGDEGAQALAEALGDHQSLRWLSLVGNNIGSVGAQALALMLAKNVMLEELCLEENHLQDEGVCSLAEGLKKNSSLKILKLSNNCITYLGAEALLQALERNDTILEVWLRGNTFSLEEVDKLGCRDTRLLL
Chain of DNA dC->dU-editing enzyme APOBEC-3G (Q9HC16 whole entry): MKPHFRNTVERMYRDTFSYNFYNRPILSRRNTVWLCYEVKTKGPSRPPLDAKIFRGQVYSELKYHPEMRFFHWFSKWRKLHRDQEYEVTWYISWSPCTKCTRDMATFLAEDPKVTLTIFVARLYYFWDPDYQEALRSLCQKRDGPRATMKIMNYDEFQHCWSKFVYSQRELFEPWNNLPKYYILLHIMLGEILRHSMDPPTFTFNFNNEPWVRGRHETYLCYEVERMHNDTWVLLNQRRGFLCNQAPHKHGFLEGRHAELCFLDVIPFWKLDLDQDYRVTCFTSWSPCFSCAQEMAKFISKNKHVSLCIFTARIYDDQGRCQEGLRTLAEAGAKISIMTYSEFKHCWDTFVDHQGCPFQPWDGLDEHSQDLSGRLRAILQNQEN
Chain of DNA dC->dU-editing enzyme APOBEC-3A (P31941 whole entry): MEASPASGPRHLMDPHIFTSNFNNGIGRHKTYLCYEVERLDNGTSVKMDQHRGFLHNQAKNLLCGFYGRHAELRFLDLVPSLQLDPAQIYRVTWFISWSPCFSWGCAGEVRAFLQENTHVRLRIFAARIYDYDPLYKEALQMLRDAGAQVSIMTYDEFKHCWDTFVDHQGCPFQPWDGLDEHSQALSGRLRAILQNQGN

COc1ccc2cc3cc(C(=O)NCC4CCCO4)oc3nc2c1 (centres undefined)
IC50 [1]: 79.3 µM (active)
AC50 [2]: 7.86 µM (active)

CC(=O)Nc1nnc(SCc2ccc(C(=O)Nc3ccccc3F)cc2)s1
IC50 [3]: 5.85 µM (active)
IC50 [4]: 6.06 µM (active)

Cn1c(SCC(=O)Nc2ccc3c(c2)oc2ccccc23)nnc1-c1ccccc1
IC50 [5]: > 50 µM (not active)
IC50 [3]: 5.4 µM (active)
IC50 [4]: 6.7 µM (active)

Cc1ccc(-c2nn3c(C)nnc3c3ccccc23)cc1S(=O)(=O)NCc1ccco1
IC50 [6]: > 80 µM (inactive)
IC50 [7]: 15.2 µM (active)
CC50 [8]: 3.28 µM (active)

O=C(O)CCSc1ncnc2sc(-c3ccccc3)cc12
EC50 [9]: 4.36 µM (active)
EC50 [10]: 7.39 µM (active)
IC50 [11]: 1.54 µM (active)
EC50 [12]: 9.35 µM (active)
EC50 [13]: 643 nM (active)
EC50 [14]: 4.68 µM (active)
IC50 [15]: > 20 µM (inactive)
EC50 [16]: 4.19 µM (active)
IC50 [17]: 3.59 µM (active)
IC50 [18]: > 20 µM (inactive)
IC50 [6]: > 80 µM (inactive)

COc1cc(NC(=O)c2cc3ccccc3cc2O)c(OC)cc1Cl
EC50 [10]: 4.15 µM (active)
IC50 [11]: > 20 µM (inactive)
IC50 [15]: 14 µM (active)
EC50 [16]: 5.66 µM (active)
IC50 [17]: 4.06 µM (inactive)
IC50 [18]: > 20 µM (inactive)
AC50 [19]: 612 nM (active)
AC50 [20]: 4.03 µM (active)

C[N+]1(CCCCCCC(=O)C=NO)CCCCCC1
IC50 [3]: 4.03 µM (active)
IC50 [4]: 3.9 µM (active)

O=C(Nc1ccc2nn(-c3ccccc3)nc2c1)c1ccc2c(c1)OCCO2
EC50 [10]: > 20 µM (inactive)
IC50 [11]: 5.31 µM (active)
IC50 [15]: > 20 µM (inactive)
EC50 [21]: > 20 µM (not active)
EC50 [16]: > 20 µM (inactive)
IC50 [17]: 8.39 µM (active)
IC50 [18]: > 20 µM (inactive)
EC50 [22]: > 20 µM (not active)

COc1ccc(-c2csc3nc(-c4cccnc4)nc(N4CCC(C(N)=O)CC4)c23)cc1OC
IC50 [6]: 43.7 µM (inactive)

COC(=O)Cc1cc(=O)oc2cc(O)ccc12
IC50 [1]: 36.6 µM (active)

CC1(C)Oc2ccc3ccc(=O)oc3c2C(/C=N/CCO)=C1O
IC50 [3]: 2.47 µM (active)
IC50 [4]: 6.83 µM (active)

C/C(=N\Nc1nc(Nc2ccccc2)nc(N2CCOCC2)n1)c1cccs1
IC50 [6]: > 80 µM (inactive)
